Test results taken from patent US5389627A, “Cephem compounds” (priority 1993, dated 1995).
Converted amounts (≈) assume the structure as drawn.

Key:
Experiment in all cases: In vitro antibacterial activity, minimum inhibitory concentration
Type in all cases: cell-based
[1] = test system: P.mirabilis ATCC25933; settings: Proteus mirabilis; P.mirabilis ATCC25933; read-out: Minimum Inhibitory Concentration (MIC)
Text: (§1) As reference compounds, Cefotaxime (CTX), Ceftazidime (CAZ) and Cefpirome (CPR) were employed.

[2] = test system: E.coli ATCC25922; settings: Escherichia coli; E.coli ATCC25922; read-out: Minimum Inhibitory Concentration (MIC)
Text: as §1

[3] = test system: S.pyogenes C4003; settings: Streptococcus pyogenes; S.pyogenes C4003; read-out: Minimum Inhibitory Concentration (MIC)
Text: as §1

[4] = test system: E.cloacae C4009; settings: Enterobacter cloacae; E.cloacae C4009; read-out: Minimum Inhibitory Concentration (MIC)
Text: as §1

[5] = test system: S.Faecalis ATCC29212; settings: Enterococcus faecalis
Text: as §1

[6] = test system: S.aureus C4036; settings: Staphylococcus aureus; S.aureus C4036; read-out: Minimum Inhibitory Concentration (MIC)
Text: as §1

[7] = test system: MRSA C2208; settings: Staphylococcus aureus; MRSA C2208; read-out: Minimum Inhibitory Concentration (MIC)
Text: as §1

[8] = test system: S.marcescens C1052; settings: Serratia marcescens; S.marcescens C1052; read-out: Minimum Inhibitory Concentration (MIC)
Text: as §1

[9] = test system: P.aeruginosa ATCC27853; settings: Pseudomonas aeruginosa; P.aeruginosa ATCC27853; read-out: Minimum Inhibitory Concentration (MIC)
Text: as §1

[10] = test system: E.cloacae C4008; settings: Enterobacter cloacae; E.cloacae C4008; read-out: Minimum Inhibitory Concentration (MIC)
Text: as §1

[11] = test system: S.typhimurium C4045; settings: Salmonella enterica; S.typhimurium C4045; read-out: Minimum Inhibitory Concentration (MIC)
Text: as §1

[12] = test system: S.marcescens ATCC27117; settings: Serratia marcescens; S.marcescens ATCC27117; read-out: Minimum Inhibitory Concentration (MIC)
Text: as §1

[13] = test system: P.rettgeri ATCC9919; settings: Providencia rettgeri; P.rettgeri ATCC9919; read-out: Minimum Inhibitory Concentration (MIC)
Text: as §1

[14] = test system: S.epidermidis ATCC12228; settings: Staphylococcus epidermidis; S.epidermidis ATCC12228; read-out: Minimum Inhibitory Concentration (MIC)
Text: as §1

[15] = test system: P.aeruginosa C4070; settings: Pseudomonas aeruginosa; P.aeruginosa C4070; read-out: Minimum Inhibitory Concentration (MIC)
Text: as §1

[16] = test system: S.aureus Smith; settings: Staphylococcus aureus; S.aureus Smith; read-out: Minimum Inhibitory Concentration (MIC)
Text: as §1

[17] = test system: K.pneumoniae ATCC10031; settings: Klebsiella pneumoniae; K.pneumoniae ATCC10031; read-out: Minimum Inhibitory Concentration (MIC)
Text: as §1

[18] = test system: S.aureus ATCC29213; settings: Staphylococcus aureus; S.aureus ATCC29213; read-out: Minimum Inhibitory Concentration (MIC)
Text: as §1

[19] = test system: E.coli C4002; settings: Escherichia coli; E.coli C4002; read-out: Minimum Inhibitory Concentration (MIC)
Text: as §1

[20] = test system: E.coli ATCC10536; settings: Escherichia coli; E.coli ATCC10536; read-out: Minimum Inhibitory Concentration (MIC)
Text: as §1

[21] = test system: K.pneumoniae C1040; settings: Klebsiella pneumoniae; K.pneumoniae C1040; read-out: Minimum Inhibitory Concentration (MIC)
Text: as §1

[22] = test system: P.aeruginosa C2027; settings: Pseudomonas aeruginosa; P.aeruginosa C2027; read-out: Minimum Inhibitory Concentration (MIC)
Text: as §1

[23] = test system: K.oxytoca C4022; settings: Klebsiella oxytoca; K.oxytoca C4022; read-out: Minimum Inhibitory Concentration (MIC)
Text: as §1

[24] = test system: S.pyogenes ATCC 8668; settings: Streptococcus pyogenes, ATCC8668; S.pyogenes ATCC 8668; read-out: Minimum Inhibitory Concentration (MIC)
Text: as §1

[25] = test system: P.aeruginosa ATCC10145; settings: Pseudomonas aeruginosa; P.aeruginosa ATCC10145; read-out: Minimum Inhibitory Concentration (MIC)
Text: as §1

Structure (SMILES)	MIC [1]	MIC [2]	MIC [3]	MIC [4]	MIC [5]	MIC [6]	MIC [7]	MIC [8]	MIC [9]	MIC [10]	MIC [11]	MIC [12]	MIC [13]	MIC [14]	MIC [15]	MIC [16]	MIC [17]	MIC [18]	MIC [19]	MIC [20]	further results
CO/N=C(\C(=O)N[C@@H]1C(=O)N2C(C(=O)[O-])=C(C[n+]3ccc4[nH]c(=NC#N)[nH]c4c3)CS[C@H]12)c1csc(N)n1 [Ex. 3, 7-β-[(Z)-2-(2-Aminothiazol-4-yl)-2-methoxyiminoacetamido]-3-[2-(1H,3H)-cyanoimine-imidazo[4,5-c]pyridiniummethyl]-3-cephem-4-carboxylate]	0.025 mg/L (≈ 0.0451 µM)	0.05 mg/L (≈ 0.0902 µM)	0.004 mg/L (≈ 0.00721 µM)	0.025 mg/L (≈ 0.0451 µM)	> 100 mg/L	3.13 mg/L (≈ 5.64 µM)	> 100 mg/L	0.05 mg/L (≈ 0.0902 µM)	6.25 mg/L (≈ 11.3 µM)	0.013 mg/L (≈ 0.0234 µM)	0.025 mg/L (≈ 0.0451 µM)	0.025 mg/L (≈ 0.0451 µM)	0.007 mg/L (≈ 0.0126 µM)	0.78 mg/L (≈ 1.41 µM)	12.5 mg/L (≈ 22.5 µM)	1.56 mg/L (≈ 2.81 µM)	0.007 mg/L (≈ 0.0126 µM)	3.13 mg/L (≈ 5.64 µM)	0.05 mg/L (≈ 0.0902 µM)	0.013 mg/L (≈ 0.0234 µM)	MIC [21]: 0.025 mg/L (≈ 0.0451 µM); MIC [22]: 6.25 mg/L (≈ 11.3 µM); MIC [23]: 6.25 mg/L (≈ 11.3 µM); MIC [24]: 0.004 mg/L (≈ 0.00721 µM); MIC [25]: 12.5 mg/L (≈ 22.5 µM)
CO/N=C(\C(=O)N[C@@H]1C(=O)N2C(C(=O)[O-])=C(C[n+]3ccc4[nH]c(=NC#N)[nH]c4c3)CS[C@H]12)c1nsc(N)n1 [Ex. 4, 7-β-[(Z)-2-(5-Amino-1,2,4-thiadiazol-3-yl)-2-methoxyiminoacetamido]-3-[2-(1H,3H)-cyanoimine-imidazo[4,5-c]pyridiniummethyl]-3-cephem-4-carboxylate]	0.025 mg/L (≈ 0.045 µM)	0.1 mg/L (≈ 0.18 µM)	0.007 mg/L (≈ 0.0126 µM)	0.05 mg/L (≈ 0.09 µM)	> 100 mg/L	3.13 mg/L (≈ 5.63 µM)	> 100 mg/L	0.05 mg/L (≈ 0.09 µM)	25 mg/L (≈ 45 µM)	0.05 mg/L (≈ 0.09 µM)	0.05 mg/L (≈ 0.09 µM)	0.05 mg/L (≈ 0.09 µM)	0.013 mg/L (≈ 0.0234 µM)	1.56 mg/L (≈ 2.81 µM)	12.5 mg/L (≈ 22.5 µM)	3.13 mg/L (≈ 5.63 µM)	0.013 mg/L (≈ 0.0234 µM)	3.13 mg/L (≈ 5.63 µM)	0.1 mg/L (≈ 0.18 µM)	0.05 mg/L (≈ 0.09 µM)	MIC [21]: 0.025 mg/L (≈ 0.045 µM); MIC [22]: 6.25 mg/L (≈ 11.2 µM); MIC [23]: 12.5 mg/L (≈ 22.5 µM); MIC [24]: 0.007 mg/L (≈ 0.0126 µM); MIC [25]: 12.5 mg/L (≈ 22.5 µM)
CO/N=C(\C(=O)N[C@@H]1C(=O)N2C(C(=O)[O-])=C(C[n+]3ccc4c(c3)[nH]c(=O)n4C)CS[C@H]12)c1nsc(N)n1 [Ex. 6, 7-β-[(Z)-2-(5-Amino-1,2,4-thiadiazol-3-yl)-2-methoxyiminoacetamido]-3-[1-methyl-2-(3H)-oxo-imidazo[4,5-c]pyridiniummethyl]-3-cephem-4-carboxylate]	0.025 mg/L (≈ 0.0458 µM)	0.025 mg/L (≈ 0.0458 µM)	0.004 mg/L (≈ 0.00733 µM)	0.013 mg/L (≈ 0.0238 µM)	> 100 mg/L	3.13 mg/L (≈ 5.74 µM)	> 100 mg/L	0.05 mg/L (≈ 0.0916 µM)	3.13 mg/L (≈ 5.74 µM)	0.013 mg/L (≈ 0.0238 µM)	0.025 mg/L (≈ 0.0458 µM)	0.025 mg/L (≈ 0.0458 µM)	0.007 mg/L (≈ 0.0128 µM)	1.56 mg/L (≈ 2.86 µM)	3.13 mg/L (≈ 5.74 µM)	3.13 mg/L (≈ 5.74 µM)	0.007 mg/L (≈ 0.0128 µM)	3.13 mg/L (≈ 5.74 µM)	0.025 mg/L (≈ 0.0458 µM)	0.007 mg/L (≈ 0.0128 µM)	MIC [21]: 0.007 mg/L (≈ 0.0128 µM); MIC [22]: 1.56 mg/L (≈ 2.86 µM); MIC [23]: 1.56 mg/L (≈ 2.86 µM); MIC [24]: 0.007 mg/L (≈ 0.0128 µM); MIC [25]: 1.56 mg/L (≈ 2.86 µM)
Nc1nc(/C(=N/O)C(=O)N[C@@H]2C(=O)N3C(C(=O)[O-])=C(C[n+]4ccc5[nH]c(=O)[nH]c5c4)CS[C@H]23)ns1 [Ex. 7, 7-β-[(Z)-2-(5-Amino-1,2,4-thiadiazol-3-yl)-2-hydroxyiminoacetamido]-3-[2-(1H, 3H)-oxo-imidazo[4,5-c]pyridiniummethyl]-3-cephem-4-carboxylate]	0.1 mg/L (≈ 0.193 µM)	0.05 mg/L (≈ 0.0966 µM)	0.2 mg/L (≈ 0.386 µM)	0.1 mg/L (≈ 0.193 µM)	> 100 mg/L	1.56 mg/L (≈ 3.01 µM)	> 100 mg/L	0.2 mg/L (≈ 0.386 µM)	50 mg/L (≈ 96.6 µM)	0.1 mg/L (≈ 0.193 µM)	0.1 mg/L (≈ 0.193 µM)	0.1 mg/L (≈ 0.193 µM)	0.5 mg/L (≈ 0.966 µM)	3.13 mg/L (≈ 6.05 µM)	50 mg/L (≈ 96.6 µM)	6.25 mg/L (≈ 12.1 µM)	0.025 mg/L (≈ 0.0483 µM)	0.78 mg/L (≈ 1.51 µM)	6.25 mg/L (≈ 12.1 µM)	0.025 mg/L (≈ 0.0483 µM)	MIC [21]: 1.56 mg/L (≈ 3.01 µM); MIC [22]: 6.25 mg/L (≈ 12.1 µM); MIC [23]: 1.56 mg/L (≈ 3.01 µM); MIC [24]: 0.1 mg/L (≈ 0.193 µM); MIC [25]: 12.5 mg/L (≈ 24.2 µM)
